Key:
[1] = test system: children with moderate to severe ADHD; assay: Example 1: 4-week placebo-controlled study of modafinil in children with ADHD; type: in vivo, human; settings: for ADHD symptoms, primary outcome measure (teacher rated ADHD Rating Scale-IV): vs placebo
Experimental: A group of 248 children (average age: 9 years, average weight: 35.5 kilograms) were studied to determine the effect of modafinil on ADHD.
After a 1 week washout period, children with moderate to severe ADHD received 4 weeks of treatment with placebo or modafinil in split morning/midday dosages of 100/200 mg, 200/100 mg, a single 300 mg dose, and 200/200 mg (400 mg total). Randomization called for equal distribution of the children by weight, except for the 200/200 mg dose group, which contained only children having a weight greater than or equal to 30 kg. The primary efficacy measure was the teacher rated ADHD Rating Scale-IV.

[2] = human blood plasma concentration curve of modafinil; type: in vivo
Experimental: FIG. 1 represents a human blood plasma concentration curve of modafinil after an initial dose of 100 mg of modafinil followed 4 hours later by a 200 mg dose of modafinil.
FIG. 2 represents a human blood plasma concentration curve of modafinil after an initial dose of 200 mg of modafinil followed 4 hours later by a 100 mg dose of modafinil.
FIG. 3 represents a human blood plasma concentration curve of modafinil after a single dose of 300 mg of modafinil.
FIG. 4 represents a human blood plasma concentration curve of modafinil after a single dose of 100 mg of modafinil.

[3] = test system: ADHD patients; assay: Example 2: 2-week fixed-dose study of 340 mg and 425 mg in children with ADHD; type: in vivo, human; settings: 340 mg (<30 kg) or 425 mg (>=30 kg) single dose per day, 2 weeks, baseline score 46.3
Experimental: Safety and efficacy of the fixed doses of 340-mg and 425-mg were evaluated following a 2-week dosing period (1-week of titration and 1-week at steady state). The 340-mg dose was administered to children weighing <30 kg, and the 425-mg dose was administered to children weighing ≧30 kg.
The 24 children enrolled in this study were predominately male (17M:7F) and predominately white (13W:9B:2Other). The average age (9.0 yrs), weight (32.9 kg) and height (133.7 cm) were similar to those seen in previous ADHD trials in children. The children <30 and ≧30 kg were approximately equaled divided. The average Attention Deficit Hyperactivity Disorder Rating Scale (ADHD-RS) total score at baseline was 46.3.

Q: With NC(=O)C[S+]([O-])C(c1ccccc1)c1ccccc1 (centres unmarked) [modafinil, 2-[(diphenylmethyl)sulfinyl]acetamide] as the compound, how does the adverse event profile ([1]; 400 mg of modafinil (200/200 mg) vs the other doses) read?
A: higher adverse event profile than the other doses

Q: And the safety and tolerability ([1]; children, 4 weeks of treatment, 300 to 400 mg total daily)?
A: safe and generally well tolerated

Q: And the “ADHD symptoms, primary outcome measure (teacher rated ADHD Rating Scale-IV)” value ([1]; children, single 300 mg once daily dose, 4 weeks of treatment)?
A: significantly improved ADHD symptoms

Q: What about the “ADHD symptoms, primary outcome measure (teacher rated ADHD Rating Scale-IV)” value ([1]; children, split morning/midday dose 200/100 mg, 4 weeks of treatment) of the same compound?
A: significantly improved ADHD symptoms

Q: What about the “blood concentrations of modafinil, amount less than predicted” value ([2]; single dose of 300 mg vs extrapolation of 100 mg unit dose data, FIG. 3) of the same compound?
A: 20-30%

Q: What about the “time post administration at which the blood level of modafinil begins to decrease” value ([2]; single dose of 300 mg, FIG. 3) of the same compound?
A: about 2 hours

Q: And the “time post administration at which the blood plasma concentration of modafinil begins to decrease” value ([2]; split dose 100 mg then 200 mg or 200 mg then 100 mg 4 hours later, FIGS. 1 and 2)?
A: about two

Q: What about the “improvement of ADHD-RS total score from baseline” value [3] of the same compound?
A: ~70%
